Assay results as given in a melting point compilation (Tetko et al.; mined from patent text by program, amines drawn as free bases though some values may be those of a salt).

Row | Structure (SMILES) | melting point [°C]
1 | Cc1ccc(C2c3c(C)c(N4C(=O)CC(c5ccccc5)C4=O)c(C)c(C)c3OC2(C)C)cc1 (stereo unspecified) | 130 to 131
2 | Cc1nnc2n1-c1sc(C#CCn3c4c(c5ccccc53)CCCC4)cc1C(c1ccccc1Cl)=NC2 | 164 to 166
3 | Cn1cc(-c2ccccc2)c(=S)c(-c2ccccc2)n1 | 122 to 123
4 | C#CC1(O)CCN(CC=C(c2ccccc2)c2ccccc2)CC1 | 122 to 123
5 | CCOC(=O)c1c(C)nc(C)n1Cc1ccc2oc(-c3ccccc3-c3nnn(C(c4ccccc4)(c4ccccc4)c4ccccc4)n3)c(Br)c2c1 | 98 to 100
6 | N#Cc1nn(-c2c(Cl)cc(C(F)(F)F)cc2Cl)c(N)c1C=O | 194 to 197
7 | CN1C(=O)C(=NC(Cl)=C(Cl)Cl)N(c2ccc(Cl)cc2)C1=O | 108 to 110
8 | COC(=O)C(C)(C)NC(=O)c1cc2c(n(CC3CCCCC3)c1=O)CCCCCC2 | 260 to 263
9 | O=C1c2c(O)ccc(O)c2C(=O)c2c(NCCN3CCOC34CCCCC4)ccc(NCCN3CCOC34CCCCC4)c21 | 218 to 225
10 | Nc1nc(N)c(-c2ccc(Cl)cc2Cl)c(C(F)(F)F)n1 | 220 to 221
11 | CC(C)OC(=O)C1=C2SCC(=CC(=O)N3CCCCC3)N2CC1 | 128 to 130
12 | CC1CCN(c2nc(Nc3cc(C4CC4)n[nH]3)c3ccccc3n2)CC1 | 190
13 | CN(C(=O)Cc1cccc2[nH]ccc12)C1c2ccccc2CC1N1CCCC1 (stereo unspecified) | 202 to 204
14 | CSc1ccccc1C=NO | 88 to 89
15 | Cc1ccc2c(c1)N(C1CC1)CNS2(=O)=O | 157 to 158
16 | Clc1ccc2c(NCCN3CCCCC3)ccnc2c1 | 148 to 151
17 | COC(=O)[C@@H]1[C@H](C(C)C)N1S(=O)(=O)c1ccc(C)cc1 (stereo partly specified) | 52 to 54
18 | Cn1ccnc1Sc1ccc(Cl)cc1N | 127 to 129
19 | CCOCc1nc2c(N)nc3ccccc3c2n1CCCNS(C)(=O)=O | 208 to 210

Row | Structure (SMILES) | melting point [°C]
20 | CC(C)(C)c1cc(CC(Cc2cc(C(C)(C)C)c(O)c(C(C)(C)C)c2)(Cc2cc(C(C)(C)C)c(O)c(C(C)(C)C)c2)[N+](=O)[O-])cc(C(C)(C)C)c1O | 199 to 201
21 | N#CC(=Cc1ccsc1)C(=O)O | 211
22 | COc1c(C2CCN(CCCCNC(=O)c3sc(-c4ccc(C#N)cc4)nc3C)CC2)ccc2c1CCCC2 | 160 to 164
23 | Nn1cc(I)c(=O)[nH]c1=O | 195 to 196
24 | Cc1oc(-c2ccccc2)nc1COc1ccc(Cn2cc(CCCC(=O)O)c(-c3ccccc3)n2)cc1 | 118 to 119
25 | O=C1NC(=O)C(N2C(=O)c3ccccc3C2=O)CC1c1ccccc1 (stereo unspecified) | 228 to 231
26 | Oc1cc(Br)cc(I)c1 | 83 to 84
27 | CC12CCC3C(CCC4CC(O)CCC43C)C1CC=C2c1cccnc1 (stereo unspecified) | 198 to 199
28 | Cc1c(S(C)=O)c(C=NO)nn1-c1c(Cl)cc(C(F)(F)F)cc1Cl (stereo unspecified) | 210 to 214
29 | CC#CCNC(=C[N+](=O)[O-])NCCSCc1[nH]cnc1C | 148 to 151
30 | Cc1ccc(S(=O)C2CC3C(=O)C(c4ccc(F)cc4)=CC2N3C)cc1 (mixture of isomers) | 186
31 | Cc1cc(Cl)cc2c1OC(C(F)(F)F)C(C(=O)O)=C2 (stereo unspecified) | 232 to 233
32 | CC1(C)Oc2ccc(Cl)cc2C12NC(=O)NC2=O (stereo unspecified) | 228 to 229
33 | CC1(C)OCc2cc(C(O)c3c[nH]cn3)ccc2O1 (stereo unspecified) | 96
34 | CC(C)(CNC=O)c1ccc(N)c([N+](=O)[O-])c1 | 113 to 115
35 | OC(COc1ccc(-c2ccccc2Br)cc1)CN1CCCC1 (stereo unspecified) | 70 to 72
36 | CCC1N=C(c2ccccc2F)c2c(ccc(N=C=O)c2Cl)N(C)C1=O (stereo unspecified) | 243 to 244
37 | CC(=O)N1CCN=C1Nc1cccc2c1CCCC2 | 142 to 144
38 | Cc1cc(OCC(F)(F)F)c(N)c(OCC(F)(F)F)n1 | 53.5 to 53.8

Row | Structure (SMILES) | melting point [°C]
39 | CC(=O)Oc1ccc(/C=C2/Sc3nc(Nc4ccc(N5CCN(C)CC5)cc4)ncc3NC2=O)cc1 | 168 to 171
40 | CCc1ccc(OCC2CO2)cc1 (stereo unspecified) | 73.5 to 74.2
41 | O=S(=O)(CCO)c1ccccc1 | 87 to 89
42 | CNC(=S)NCCSCc1[nH]cnc1C | 150 to 152
43 | CC(C)(C)c1c[nH]c(S)n1 | 232 to 234
44 | NC(=O)OC(=O)C(Cl)(Cl)Cl | 183 to 184
45 | O=C1c2cccc([N+](=O)[O-])c2C(=O)N1CCCCN1C(=O)c2cccc([N+](=O)[O-])c2C1=O | 245
46 | Cc1csc(C(C)(O)c2nc(C)cs2)n1 | 82 to 84
47 | O=C1N(CCCCCl)CCN1C1CCCCC1 | 30 to 35
48 | CC1(CCOC2CCCCO2)C(=O)NNC1=O (stereo unspecified) | 179 to 180
49 | CC1CCCCN1CCC(=O)Nc1ccc2c(=O)c3ccc(NC(=O)CCN4CCCCC4C)cc3[nH]c2c1 (stereo unspecified) | > 320
50 | O=C(O)C1C(C=C(Cl)Cl)C12CCC2 (stereo unspecified) | 122 to 128
51 | CC1CC(=O)c2c(SCc3ncn(C)n3)ccc(-c3nccs3)c2C1 (stereo unspecified) | 130 to 131
52 | Nc1nc2c(s1)C(=O)CCC2 | 259 to 262
53 | Cn1ccnc1-c1ccc(O)cc1 | 239 to 242
54 | FC(F)(F)C(=C1SCCCS1)c1ccccc1 | 87 to 88
55 | O=Cc1c(NC(Cc2ccccc2)C(=O)O)ncnc1-c1ccc(OCc2ccccc2)cc1 (stereo unspecified) | > 300
56 | NC1=Nc2ccc([N+](=O)[O-])cc2C(c2ccccc2F)=NC1 | 225 to 227
57 | Nc1ccc(Sc2nnc3ccc(-c4ccc(F)cc4)cn23)cc1 | 217

More lines, now with the values ahead:

Row | melting point [°C] | Structure (SMILES)
58 | 225 to 227 | O=C(O)c1ccc(NCc2cc(Cl)c(Cl)s2)cc1
59 | 103 to 106 | COC(=O)CCCc1cc2cc(Cl)ccc2n1S(=O)(=O)c1ccc2nsnc2c1
60 | 163 | CC(CN1CCCC1)N1c2ccccc2Sc2ccc(C(=O)Nc3ccccc3)cc21 (racemic)
61 | 133 to 135 | CCc1cc2c(-c3ccccc3Cl)c(NC(=O)C=Cc3cc(OC)c(OC(C)=O)c(OC)c3)cnc2s1
62 | 83 to 85 | CC(C)(C)COC1CCC(=O)N1C(=O)c1ccccc1 (stereo unspecified)
63 | 115 | CC(SC1COC(c2ccc(C(=O)Nc3ccc(C#N)c(Cl)c3)cc2)OC1)C(O)(Cn1cncn1)c1ccc(F)cc1F (stereo unspecified)
64 | 193 to 194 | O=C(O)Cc1coc2cc(OCc3cc(-c4ccc(Cl)cc4)on3)ccc12
65 | 96 to 97.5 | CCN(CC)CCOc1cccc2c1c1cc(Cl)ccc1n2Cc1ccccc1
66 | 233 to 235 | Cc1nc(N2CCN(Cc3ccncc3)C2=O)sc1C(=O)NCc1cccnc1
67 | 248 to 249 | O=C(O)Cn1c(-c2ccc(Cl)c(Cl)c2)nc2cccnc21
68 | 109 to 111 | O=C1NC(=O)C(Cc2ccc(OCc3cccc(-c4ccccc4)c3)cc2)S1 (stereo unspecified)
69 | 78 to 82 | CC(=O)N1CCN(C(=O)c2nc(-c3ccccc3)c(-c3ccc(=O)n(C(C)C)n3)s2)CC1
70 | 114 to 115 | COC(=O)C(C)c1ccc2nc(-c3ccc(Cl)cc3)ccc2c1 (stereo unspecified)
71 | 234 | COc1ccc(C(=O)O)c(O)c1O
72 | 78 to 80 | CCCCOc1cccc(C[C@H](NC(=O)c2coc(NS(C)(=O)=O)n2)[C@H](O)CNCc2cccc(CC)c2)c1
73 | 152 | COc1c(-n2cccc2)cc(CC(C#N)=CNc2ccccc2)cc1-n1cccc1
74 | 122 | Cc1cccc(C(O)CSC(=S)Nc2ccc(Cl)cn2)c1 (stereo unspecified)
75 | 158 to 162 | Cn1cc(C(=O)NCc2ccc(Cl)cc2)c(=O)c2cc(CN3CCC[C@@H]3[C@@H](O)c3ccccc3)sc21 (relative stereo)
76 | 146 to 147 | O=C(O)Cc1ccccc1OCCn1ccnc1
77 | 63 to 65 | COc1ccc2c(c1OC)CCOC2CCl (stereo unspecified)
78 | 184 to 187 | COCCOc1ccc(N=Nc2cc(S(=O)(=O)N3CCCC3)c(O)c3cccc(NS(C)(=O)=O)c23)cc1S(=O)(=O)Cl
79 | 147 to 150 | CC(c1ccccc1)c1cc(C(=O)O)c(O)c(C(C)c2ccccc2)c1 (stereo unspecified)

Row | melting point [°C] | Structure (SMILES)
80 | 198 | CC(C)(C)OC(=O)Nc1cc(N2CCC3(CC2)OCCO3)c(-c2ccccc2F)cc1N
81 | 147 to 148 | COC(=O)c1cccc(-c2nc(-c3ccc(F)c(F)c3)cs2)c1
82 | 105 to 110 | CCOC(=O)N(c1ccccc1)c1cc(Cl)ccc1N=NC(NC(=O)CCl)(C(=O)OCC)C(=O)OCC
83 | 180 to 183 | Cc1cc(Cl)c(S(C)(=O)=O)cc1C(=O)O
84 | 219 | CN(C(=O)CN(C(=O)CNC(=O)Nc1cccc(/C=N/O)c1)c1ccccc1)c1ccccc1
85 | 140 | COC(=O)c1cc(C(=O)c2cccc(F)c2)ccc1OC
86 | 147 to 149 | CNC(=O)[C@@H]1C[C@H](OS(=O)(=O)c2ccc(C)cc2)CN1S(=O)(=O)c1ccc(C)cc1
87 | 141 to 143 | COc1cccc(C(=O)N2CCc3cc(OCc4ccccc4)c(OC)cc3C2=O)c1
88 | 155 to 156 | CCOC(=O)Cn1c(=S)n(Cc2ccc(Cl)c(Cl)c2)c(=S)c2ccccc21
89 | 225 to 228 | COc1ccc(-c2csc(Nc3ncccn3)n2)cc1OC
90 | 114 | CCCCCNC(=O)N(C)c1ncc(-c2ccc(C[C@H](OCC)C(=O)O)cc2)s1
91 | 128 to 129 | Cc1cc(-c2ccc(C#N)cc2)c(C)n1Cc1cnc(Cl)c(CO)c1
92 | 159 to 160 | CC1CCN(CC(=O)N2c3ccccc3N(C)S(=O)(=O)c3ccccc32)CC1
93 | 54 to 55 | CCCCCOc1c(OC)cc([N+](=O)[O-])c2nccc(C)c12
94 | 259 to 260 | Cn1c2c(c3cc(Cl)ccc31)CCC(C(=O)O)C2 (stereo unspecified)
95 | 140 to 142 | CSc1cccc(Cc2sc(NC(C)=O)nc2CO)c1
96 | 215 to 216 | CCOP(=O)(CCCCCCOc1ccc(C(=O)O)cc1)OCC
97 | 91 | O=S(=O)(c1ccccc1F)N1CCCC1c1ccc(F)cc1 (racemic)
98 | 120 | CC(=O)Nc1ccc(OCCCBr)cc1
99 | 156 to 159 | Cc1ccccc1C(=O)NCN1CCN(c2cccc(C#N)c2)CC1
100 | 242 to 247 | Cc1ccccc1S(=O)(=O)NC1CCc2sc(-c3ccc(=O)[nH]n3)cc2C1 (stereo unspecified)
101 | 111 to 112 | COC(=O)c1cc(Cl)c(Cl)c(Cl)c1
